From article PMC9722955 (Frontiers in Pharmacology, 2022)

How the values were obtained:
[1] = target: T1, recombinant human CYP46A1 (Homo sapiens, UniProt Q9Y6A2); experiment: Inhibition of CYP46A1-catalysed testosterone 16β-hydroxylation; type: biochemical; conditions: for residual activity of CYP46A1: 10 μM lignan; for residual activity of CYP46A1 / IC50: testosterone 10 μM as substrate; for Ki: testosterone 2–150 μM; for Type of inhibition: testosterone as substrate; for α: mixed inhibition model
T1 construct: purchased Cypex (Dundee, Scotland, United Kingdom)
Description: 16β-hydroxytestosterone formation catalyzed by CYP46A1 was conducted at conditions linear for the duration of incubation and protein concentration. […] After preliminary incubation at 37°C for 5 min, 10 μL NADPH (final concentration, 1 mM) was added to initiate the reaction for 10 min. The reaction was stopped by adding the same volume of acetonitrile containing 1 μM of the internal standard. The mixture was left on ice until it was centrifuged at 20,000×g for 20 min at 4°C. Aliquots of the supernatant were stored at −20°C until analysis. The possible inhibitory intensities of the sesame lignans were evaluated by quantifying the 16-OH-TST generated.
Testosterone 16β-hydroxylation reaction samples were injected into an API 3200 triple quadrupole mass spectrometer (Applied Biosystems, Concord, Ontario, Canada) and an Agilent HP1200 LC system (Agilent Technology Inc., CA, United States). The chromatographic separation was performed on a Hypersil ODS-BP column (150 mm × 2.1 mm, 5 μm; Dalian Elite Analytical Instruments Co. Ltd., China) at ambient temperature. IonSpray Voltage (IS): 4500 V; Temperature (TEM): 590°C; Ion Source Gas1 (GS1, N1): […]; Ion Source Gas2 (GS2, N2): […]; Curtain Gas (CUR): 30 psi; Collision Gas (CAD): 12 psi. MS/MS conditions for analyzed compounds are shown in Supplementary Table S1. Mobile phase A consisted of 0.1% formic acid in water; mobile phase B consisted of 0.1% formic acid in acetonitrile; the flow rate was 0.4 ml/min. The gradient elution program was 0–1 min, 95% A; 1–3 min, 95%–65% A; 3–5 min, 65%–35% A; 5–6 min, 35%–15% A; 6–8 min, 15% A; 15%–95% A, 8–8.1 min; 8.1–12 min, 95% A. 16β-hydroxytestosterone and Carbamazepine (internal standard) were monitored in the positive ion mode, and detected by fragment ions at m/z 305.2→97.2 and 237.1→194.2, respectively. LC-MS/MS data acquisition and integration were performed with Analyst 1.6.3 using the internal standard and peak-area ratios for calculation (linear regression, 1/x weighting).
The three equations and the inhibition constant were as described in our previously published methods ([Wu et al., 2017]). v=Vmax⋅S/Km⋅(1+I/Ki)+S (1) v=Vmax⋅S/(Km+S)⋅(1+I/Ki) (2) v=Vmax⋅S/Km⋅(1+I/Ki)+S⋅(1+I/α⋅Ki) (3) where v is the reaction velocity; S and I denote the substrate and inhibitor concentrations, respectively; K i represents the inhibition constant describing the affinity of the inhibitor for the enzyme; K m refers to the substrate concentration at half-maximal velocity (V max) of the reaction. The α value determines the degree of change in enzyme affinity for the substrate following the binding of the inhibitor. When α is less than 1, binding of an inhibitor […] substrate binding, and the mixed model is identical to non-competitive inhibition. When α is very large (α > 1), the binding of an inhibitor […] substrate binding, and the mixed model depicts competitive inhibition. The type of inhibition was determined by fitting the data to enzyme inhibition models. The goodness-of-fit of kinetic and inhibition models was assessed using R ^2 values and parameter S.D. estimates. Dixon and Lineweaver-Burk plots were also used to characterize the inhibition kinetics. Kinetic constants are reported as the mean ± S.D. of the parameter estimate.

[2] = system: CYP46A1; experiment: Western blotting of CYP46A1 protein in h-CYP46A1-Neuro-2a cells; type: cell-based, human; conditions: 20 μM, 24 h
Description: MDCK-MDR1 cells and Neuro-2a-CYP46A1 cells were cultured in DMEM containing 10% (v/v) FBS, 1% nonessential amino acids, 100 U/mL penicillin G, and 100 μg/ml streptomycin, and incubated at 37°C in the presence of 5% CO2 and 95% humidity. The Neuro-2a-CYP46A1 cells were seeded into six-well plates at a density of 1 × 10^5 cells per well and cultured for 24 h. Drug intervention experiments were conducted by replacing the medium with a serum-free medium containing sesame ligands (20 μM) for 24 h.
The cells and tissues were harvested with lysis buffer and cleaved at 4°C for 20 min. All samples were centrifuged at 12,000 × g for 15 min at 4°C. The protein concentrations were quantified by BCA regent kits. Sodium dodecyl sulfate-polyacrylamide gel electrophoresis (SDS-PAGE) was used to separate the proteins, and they were then transferred to PVDF membranes. After incubation of the membranes with 5% non-fat milk for 2 h, they were then incubated with the primary antibodies at 4°C overnight. After washing three times, the membranes were incubated with the secondary antibody for 2 h. The protein bands were detected by a Tanon-5200 imaging system and the densities were analyzed by ImageJ software. The GAPDH antibody served as the internal control for sample loading.

[3] = Membrane permeability assay across MDCK-MDR1 monolayer; conditions: dog
Description: (§3) To estimate the permeability of the sesamin lignans across the blood-brain barrier (BBB), a membrane permeability assay was conducted with an MDCK-MDR1 monolayer. The transport assays were performed by seeding MDCK-MDR1 cells on a tissue culture plate insert (BIOFIL®, PC membrane, 0.33 cm^2 surface area, 0.4 μm pore size) in 24-well companion plates for 5 days. The culture medium was changed once every 2–3 days. To confirm the confluency of the cell monolayer, the trans-epithelial electrical resistance (TEER) of each well was measured before the transport assay using a resistance meter (Millipore, Millicell® ERS-2, United States). […] The cell monolayer was gently washed with Hank’s Balanced Salt Solution (HBSS) at 37°C and the transwell chamber was pre-incubated for 30 min. […] After 120 min of incubation, a 50 μL sample was removed from the receiver compartment and uniformly mixed with 50 μL methanol. Then, it was centrifuged at 20,000 ×g at 4°C for 20 min. All available samples in the receiver compartments were injected into the HPLC system for analysis. The HPLC system comprised an Agilent MSD/MS system controller, two 1,260 series pumps, a 1,200 series autosampler, a 1,200 series variable wavelength detector, and an elite ODS-BP analysis column (4.6 × 200 mm, 5 μm). The mobile phase for sesame lignans was methanol/water (80/20, v/v), and the flow rate was 0.8 ml/min with a detector wavelength of 290 nm. […] Ultraviolet detection was performed at 230 nm. The permeability (P app) and efflux ratio (ER) were calculated as follows (Eqs. 4, 5) ([Grès et al., 1998]). Papp=dQ/dt⋅1/A⋅C0 (4) In Eq. (4), A denotes the area of mass transfer, C0 represents the donor concentration of compound in the upper medium, and dQ/dt is the rate of transmembrane transportation. […] ER=Papp, B→A/Papp, A→B (5)
(§4) In Eq. (5), P app, B→A denotes the basal to apical (B-A) transport rate, and P app, A→B is the apical to basal (A-B) transport rate.

[4] = system: CYP46A1 activity (24S-hydroxycholesterol); experiment: 24S-hydroxycholesterol levels in rat plasma and brain (ELISA) after sesamin; type: in vivo; conditions: sesamin 60 mg/kg intragastric once daily, 4 weeks
Description: (§1) The experiments were reviewed and approved by the Experimental Animal Centre of Dalian Medical University. All rats were obtained from Liaoning Changsheng Biotechnology co., Ltd. All animal experiments complied with the ARRIVE guidelines and were carried out in accordance with the National Institutes of Health guide for the care and use of laboratory animals (NIH Publications No. […], revised 1978). Wistar rats were randomly divided into the administration group (n = 5) and the control group (n = 5). The rats were provided with laboratory standard animal feed and kept under a 12-h light cycle. Sesamin (60 mg/kg) was given by intragastric administration daily for 4 weeks; the control group was given an equivalent volume of olive oil. The rats were anesthetized with pentobarbital sodium (40 mg/kg) and blood samples and brain tissue samples were collected for further assays. The levels of 24S-hydroxycholesterol in rat plasma and brain tissues were measured by ELISA kits (Proteintech Group, Wuhan, China), according to the manufacturer’s instructions.

[5] = system: CYP46A1; experiment: Western blotting of rat brain tissue, CYP46A1; type: in vivo; conditions: sesamin 60 mg/kg, 4 weeks, vs control
Description: as §1, with “assays.” for “assays. The levels of 24S-hydroxycholesterol in rat plasma and brain tissues were measured by ELISA kits (Proteintech Group, Wuhan, China), according to the manufacturer’s instructions.”
(§2) The cells and tissues were harvested with lysis buffer and cleaved at 4°C for 20 min. All samples were centrifuged at 12,000 × g for 15 min at 4°C. The protein concentrations were quantified by BCA regent kits. Sodium dodecyl sulfate-polyacrylamide gel electrophoresis (SDS-PAGE) was used to separate the proteins, and they were then transferred to PVDF membranes. […] The protein bands were detected by a Tanon-5200 imaging system and the densities were analyzed by ImageJ software. […]

[6] = system: HMGCR; experiment: Western blotting of rat brain tissue, HMGCR; type: in vivo; conditions: sesamin 60 mg/kg, 4 weeks, vs control
Description: as §1, with “assays.” for “assays. The levels of 24S-hydroxycholesterol in rat plasma and brain tissues were measured by ELISA kits (Proteintech Group, Wuhan, China), according to the manufacturer’s instructions.”
as §2

[7] = system: NMDAR2A; experiment: Western blotting of rat brain tissue, NMDAR2A; type: in vivo; conditions: sesamin 60 mg/kg, 4 weeks, vs control
Description: as §1, with “assays.” for “assays. The levels of 24S-hydroxycholesterol in rat plasma and brain tissues were measured by ELISA kits (Proteintech Group, Wuhan, China), according to the manufacturer’s instructions.”
as §2

[8] = system: NMDAR2B; experiment: Western blotting of rat brain tissue, NMDAR2B; type: in vivo; conditions: sesamin 60 mg/kg, 4 weeks, vs control
Description: as §1, with “assays.” for “assays. The levels of 24S-hydroxycholesterol in rat plasma and brain tissues were measured by ELISA kits (Proteintech Group, Wuhan, China), according to the manufacturer’s instructions.”
as §2

[9] = system: CYP46A1 mRNA; experiment: Quantitative real-time PCR of rat brain, CYP46A1 mRNA; type: in vivo; conditions: sesamin 60 mg/kg, 4 weeks, vs control
Description: as §1, with “experimental procedure was performed as described previously ([Wen et al., 2018]). Total brain RNA and cDNA synthesis were meausured with an RNAiso Plus Reagent Kit and SYBR Premix Ex Taq Kit, respectively (Takara Biotechnology, Dalian, China). Quantitative real-time PCR was performed using SYBR Green PCR Master Mix and an ABI prim 7500 Sequence Detection System (Applied Biosystems, United States). Primers used for RT-qPCR are shown” for “levels of 24S-hydroxycholesterol”, “Supplementary Table S2.” for “rat plasma and brain tissues were measured by ELISA kits (Proteintech Group, Wuhan, China), according to the manufacturer’s instructions.”

[10] = system: HMGCR mRNA; experiment: Quantitative real-time PCR of rat brain, HMGCR mRNA; type: in vivo; conditions: sesamin 60 mg/kg, 4 weeks, vs control
Description: as §1, with “experimental procedure was performed as described previously ([Wen et al., 2018]). Total brain RNA and cDNA synthesis were meausured with an RNAiso Plus Reagent Kit and SYBR Premix Ex Taq Kit, respectively (Takara Biotechnology, Dalian, China). Quantitative real-time PCR was performed using SYBR Green PCR Master Mix and an ABI prim 7500 Sequence Detection System (Applied Biosystems, United States). Primers used for RT-qPCR are shown” for “levels of 24S-hydroxycholesterol”, “Supplementary Table S2.” for “rat plasma and brain tissues were measured by ELISA kits (Proteintech Group, Wuhan, China), according to the manufacturer’s instructions.”

[11] = system: CYP2C9; conditions: read-out: value of competitive inhibition of 7-position hydroxylation of S-warfarin, ref Fujii et al., 2020; cited from earlier work
[12] = in vitro; conditions: dog, MDCK-MDR1
Description: as §3, §4

T1 sequence (Q9Y6A2 whole entry): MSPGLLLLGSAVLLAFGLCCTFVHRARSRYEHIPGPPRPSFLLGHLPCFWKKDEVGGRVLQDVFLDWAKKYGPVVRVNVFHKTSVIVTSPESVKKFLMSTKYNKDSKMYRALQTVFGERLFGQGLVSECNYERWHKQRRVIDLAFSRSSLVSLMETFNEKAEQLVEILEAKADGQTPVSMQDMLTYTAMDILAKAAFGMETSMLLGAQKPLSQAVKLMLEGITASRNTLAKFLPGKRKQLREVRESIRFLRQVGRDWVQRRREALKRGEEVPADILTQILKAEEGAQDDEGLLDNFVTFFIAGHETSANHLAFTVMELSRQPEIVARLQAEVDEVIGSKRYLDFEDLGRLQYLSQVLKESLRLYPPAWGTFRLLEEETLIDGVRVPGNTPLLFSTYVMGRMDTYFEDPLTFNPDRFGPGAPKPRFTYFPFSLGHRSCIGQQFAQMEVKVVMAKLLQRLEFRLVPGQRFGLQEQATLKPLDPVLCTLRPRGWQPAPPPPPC

Row | Type of inhibition ([1]; listed as sesamolin) | Papp at 120 min, 20 μM [12] [×10⁻⁶ cm/s] | Compound | residual activity of CYP46A1 [1] [%] | IC50 [1] [µM] | Ki [1] [µM] | Type of inhibition [1] | reduction of CYP46A1 protein level vs control [2] [%] | Papp at 120 min, 20 μM [3] [×10⁻⁶ cm/s] | α [1] | Type of inhibition ([1]; listed as sesamin) | decrease of 24S-HC level in brain [4] [%] | plasma concentration of 24S-HC [4] [ng/mL] | reduction of 24S-HC level in plasma [4] [%] | reduction of CYP46A1 protein expression in rat brain tissue [5] [%] | reduction of HMGCR protein expression in rat brain tissue [6] [%] | reduction of NMDAR2A protein expression in rat brain tissue [7] [%] | reduction of NMDAR2B protein expression in rat brain tissue [8] [%] | change of CYP46A1 mRNA expression in rat brain [9] | change of HMGCR mRNA expression in rat brain [10] | Ki [11] [µM]
1 |  |  | Oc1ccc2c(c1)OCO2 [Sesamol, sesamol] | 59.4 | 21.3 ± 4.74 | 18.7 ± 0.72 | Non-competitive | 26.1 | 35.3 |  |  |  |  |  |  |  |  |  |  |  | 
2 |  |  | c1cc2c(cc1[C@H]1OC[C@H]3[C@@H]1CO[C@@H]3c1ccc3c(c1)OCO3)OCO2 [Sesamin, sesamin] | 36.2 | 6.02 | 6.87 ± 1.07 | mixed inhibition | 28.1 | 6.75 | 6.491 | mixed partial competitive inhibition | 29.3 | 45.747 | 55.88 | 27.3 | 31.6 | 22.1 | 43.5 | no significant changes | no significant changes | 13.1
3 | mixed partial competitive inhibition | 20.5 | c1cc2c(cc1O[C@H]1OC[C@H]3[C@@H]1CO[C@@H]3c1ccc3c(c1)OCO3)OCO2 [Sesamolin, sesamolin] | 25.8 | 3.34 ± 0.543 | 4.02 ± 0.786 | Mixed | 57.1 |  | 4.891 |  |  |  |  |  |  |  |  |  |  | 
